US6723702B2, “Use of relaxin treat diseases related to vasoconstriction” (RAS Medical, Inc., priority 2000, dated 2004)
Marks after values point to notes of the source that are not given here.

What was measured:
conscious rats = assay: Acute infusion of ANG II during chronic infusion of purified porcine RLX; format: in vivo, rat; conditions: for ERPF / ERVR / GFR / MAP: RLX 4 μg/h s.c. day 5
Description: At least 7 days after the implantation of vascular and bladder catheters, osmotic minipumps containing either porcine RLX (4 μg/hour) or vehicle (Ringer's solution) were implanted in intact, female rats (n=7 and 6 rats, respectively). Renal function and MAP were measured on day 5 of relaxin infusion (three 30-minute urine and midpoint blood collections). Next, an infusion of L-NAME (2 μg/minute, a substrate competitive inhibitor of NO synthase) was administered intravenously (i.v.) by infusion pump (Model 200, KD Scientific, Boston, Mass.). Four 1-hour urine collections with midpoint blood samples were collected for the assessment of GFR, ERPF, and ERVR during the L-NAME administration. Identical procedures were performed on additional animals chronically administered porcine RLX (n=5) or vehicle (n=5), except that ANG II (3 ng/minute) was infused rather than L-NAME. Finally, another four, age-matched control rats were administered Ringer's solution instead of either L-NAME or ANG II on day 5 of porcine RLX infusion.
To minimize the possibility that the convergence of renal function in the relaxin and vehicle infused rats elicited by L-NAME was merely a consequence of nonspecific renal vasoconstriction, the experimental paradigm was repeated using another vasoconstrictor, ANG II. Values are provided as mean±SEM. Relaxin, RLX; Angiotensin II, ANG II. ANG II was infused at 3 ng/min i.v., and RLX at 4 μg/h by osmotic minipump s.c. There were five rats each in the RLX and vehicle groups. *p<0.05 vs baseline, Hp<0.05 RLX vs vehicle.

intact, female rats = assay: Hematocrit and plasma osmolality during chronic relaxin infusion; format: in vivo, rat; conditions: for Hematocrit, Difference between baseline and Day 5 / Plasma osmolality, Difference between baseline and Day 5: 4 μg/h s.c. infusion
Description: At the beginning of each experiment, immediately after opening the arterial catheter and before infusion of fluids, 100 μl of blood was collected into a heparinized tube. After centrifugation to separate blood cells from plasma, the latter was frozen at −20° C. until assay for osmolality. Then, three 30-minute baseline urine collections with midpoint blood samples and continuous recording of MAP were made on one or two occasions separated by at least 48 hours, in order to accurately measure control MAP, GFR, ERPF, and ERVR (MAP/ERPF). The hematocrit was also routinely determined on these midpoint blood samples. The renal clearances of IN and PAH were used to assess GFR and ERPF, respectively. […] Next, an osmotic minipump containing purified porcine RLX (4 μg/hour; n=7 rats), rhRLX (4 μg/hour; n=5) or vehicle (n=4) was implanted. MAP, GFR, ERPF, and ERVR were assessed on days 2 and 5 of the infusion, and 5-12 days after depletion of the 7-day minipump. Details of our methodologies for the assessment of GFR and ERPF in chronically instrumented, conscious rats including the measurement of IN and PAH in both plasma and urine have been previously published. Conrad (1984) Kidney Int. 26:24-29; and Danielson and Conrad (1995) J. Clin. Invest. 96:482-490. Circulating relaxin concentrations of 20-40 ng/mL have been measured in rats of 12-14 gestational days. Sherwood et al. (1980) Endocrinol. 107:691-698. An infusion rate of 4 μg/hour for purified porcine RLX or rhRLX would be expected to produce plasma levels of 20-40 ng/mL.
Plasma osmolality was measured using a freezing-point depression instrumentation osmometer (Model 3MO, Advanced Instruments, Needham Heights, Mass.). Plasma and urine IN and PAH were assayed by standard techniques. Urinary sodium concentration was measured by ion selective electrode (Sodium-Potassium Chemistry Module, Beckman Instruments, Inc., Brea, Calif.). Urinary cGMP was determined by specific radioimmunoassay as previously described. Conrad and Vernier (1989) Am. J. Physiol. 257:R847-R853. Urinary NOX was measured by reduction of nitrate to nitrite, the latter determined by the Griess reaction which produces a calorimetric product measured at 540 nm (Nitrate/Nitrite Colorimetric Assay Kit, Cayman Chemical, Ann Arbor, Mich.).
Data are presented as mean±SEM. rhRLX, recombinant human relaxin. RLX was infused at 4 μg/h by osmotic minipump s.c. There were 7, 4, and 5 rats, respectively, in the porcine RLX, vehicle, and rhRLX groups at baseline, and days 2 and 5 of treatment. During the post RLX period, 6, 2, and 2 rats were studied in the porcine RLX, vehicle and rhRLX groups. Two of the rats in the vehicle group received Ringer's solution (vehicle for porcine RLX), and two received 20 mM sodium acetate, pH 5.0 (vehicle for rhRLX). The results were not different, and therefore, the data were combined. *p<0.05 vs baseline, Hp<0.05 RLX vs vehicle.

human cardiac cells = assay: VEGF protein secreted by human cardiac cells; format: cell-based; conditions: 100 ng/ml, 24 hr
Description: Consistent with RT-PCR data, relaxin stimulated a small but significant dose-related increase in levels of VEGF protein secreted by human cardiac. Cells were seeded in 35 mm wells at 2.5×10^5 cells per well 24 hours prior to treatment with relaxin. Cells were washed twice with SmBM (no supplements) and incubated for 2 hr with SmBM treatment medium (containing 400 pg/ml bFGF, gentamycin, amphoteracin B, and 2% fetal calf serum) at 37° C., 5% CO2. The medium was then replaced with SmBM treatment medium without relaxin or with concentrations of relaxin from 0.1 ng/ml to 100 ng/ml. Cells were then incubated for 24 hr (37° C., 5% CO2).

[1] = Baseline, before 4 μg/h s.c. minipump

## Porcine RLX: lyophilized, purified porcine relaxin (Sherwood and O'Byrne 1974), dissolved in Ringer's solution
Conscious rats; ANG II 3 ng/min i.v., 60 min
  ERPF: 8926
  ERVR: 8.88
  GFR: 2980
  MAP: 130
Conscious rats; ANG II 3 ng/min i.v., 120 min
  ERPF: 9646
  ERVR: 9.24
  GFR: 2653
  MAP: 142
Conscious rats; ANG II 3 ng/min i.v., 180 min
  ERPF: 7738
  ERVR: 11.52
  GFR: 2578
  MAP: 143
Conscious rats; ANG II 3 ng/min i.v., 240 min
  ERPF: 7698
  ERVR: 11.84
  GFR: 2763
  MAP: 146
Conscious rats; Baseline before ANG II
  ERPF: 10364
  ERVR: 6.23
  GFR: 2929
  MAP: 111
Conscious rats; RLX treated vs vehicle infused rats
  percent increase in MAP and reduction in GFR elicited by ANG II: comparable
Conscious rats; chronic relaxin vs vehicle
  percent increase in ERVR and reduction in ERPF elicited by ANG II: markedly attenuated
intact, female rats
  Hematocrit, Difference between baseline and Day 5: −4 ± 1 %
  Plasma osmolality, Difference between baseline and Day 5: −14 ± 3 mOsm/kg H2O
intact, female rats; [1]
  Hematocrit: 42 ± 1%
  Plasma osmolality: 301 ± 2 mOsm/kg H2O
intact, female rats; Day 2 of 4 μg/h s.c. infusion
  Hematocrit: 39 ± 1* %
  Plasma osmolality: 289 ± 2*† mOsm/kg H2O
intact, female rats; Day 5 of 4 μg/h s.c. infusion
  Hematocrit: 37 ± 1*† %
  Plasma osmolality: 287 ± 2*† mOsm/kg H2O
intact, female rats; Post RLX Day 5-12
  Hematocrit: 40 ± 1%
  Plasma osmolality: 299 ± 2 mOsm/kg H2O

## rhRLX: recombinant human relaxin, identical in amino acid sequence to the product of the human H2 gene; A chain of 24, B chain of 29 amino acids
Human cardiac cells
  VEGF secretion, maximum induction over control levels: 155%
intact, female rats
  Hematocrit, Difference between baseline and Day 5: −2 ± 1 %
  Plasma osmolality, Difference between baseline and Day 5: −12 ± 2 mOsm/kg H2O
intact, female rats; [1]
  Hematocrit: 39 ± 0%
  Plasma osmolality: 299 ± 2 mOsm/kg H2O
intact, female rats; Day 2 of 4 μg/h s.c. infusion
  Hematocrit: 37 ± 1* %
  Plasma osmolality: 291 ± 3*† mOsm/kg H2O
intact, female rats; Day 5 of 4 μg/h s.c. infusion
  Hematocrit: 37 ± 1*† %
  Plasma osmolality: 286 ± 2*† mOsm/kg H2O
intact, female rats; Post RLX Day 5-12
  Hematocrit: 40%
  Plasma osmolality: 302 mOsm/kg H2O
